Experimental data reported in publication PMC11239390, “Glycoside-metabolizing oxidoreductase D3dgpA from human gut bacterium” (Frontiers in Bioengineering and Biotechnology, 2024).

B1: D3dgpA (human intestinal bacterium PUE) (protein)
chain: MSKLKIGIIGCGGIANQKHFPALKNNADLNEIVAFCDIQIDRAEKAAAEFGAEGAQVTADYKELLANPEVEVVHVCTPNVSHSEITIAAFEAGKHVYCEKPMSHSTEEAEKMVEAWKKSGKQFTIGYQNRFREEVMNLKKSCDKGELGEIYYGKAHAVRRRAVPTWGVFMDKEAQGGGPLIDIGTHALDITLWCMNNYDVDSVTGSVFYKLGQKENGPEGNLFGPWDPKTFEVEDSAVGFVKMKNGATIGLEASWAINMLDSREASTTLCGTEAGAEIHSGMSYPKNELIYNRARNNQLMEETLSSVGSIAYFAGGAGEEGTVDNRQWLEAIQNGTEPLVKPEEALAVTKILDAIYKSAKTNETIKF
notes: full length, 367 residues; His6-tag; pET-duet 1 (EcoRI/SalI), E. coli BL21 (DE3), Ni-NTA; about 45 kD; hexamer in solution; co-purifies with NAD(H)

Experiments:
D3dgpA [1] = target: T1, D3dgpA (human intestinal bacterium PUE, UniProt A0A3Q9WWX8); experiment: HPLC analysis of nucleotide co-purified with enzyme; assay type: binding; settings: bound in purified enzyme as isolated
T1 construct: gene dgpA; full length, 367 residues; His6-tag; pET-duet 1 (EcoRI/SalI), E. coli BL21 (DE3), Ni-NTA; about 45 kD; hexamer in solution; co-purifies with NAD(H)
T1 sequence (A0A3Q9WWX8 1-367): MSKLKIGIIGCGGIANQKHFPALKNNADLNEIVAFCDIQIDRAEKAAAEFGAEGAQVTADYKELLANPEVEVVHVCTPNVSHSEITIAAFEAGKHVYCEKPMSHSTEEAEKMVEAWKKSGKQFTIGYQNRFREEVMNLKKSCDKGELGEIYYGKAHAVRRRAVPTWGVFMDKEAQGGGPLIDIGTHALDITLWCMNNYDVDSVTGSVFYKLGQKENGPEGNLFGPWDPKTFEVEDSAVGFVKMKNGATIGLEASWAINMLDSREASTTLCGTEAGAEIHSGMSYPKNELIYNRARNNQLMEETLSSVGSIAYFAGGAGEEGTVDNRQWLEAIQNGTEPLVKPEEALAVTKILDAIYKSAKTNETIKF

[2] = target: D3dgpA, Gfo/Idh/MocA family glycoside oxidoreductase (dgpA cloned from Dorea sp. MRG-IFC3) (Dorea sp. MRG-IFC3); experiment: not stated; purified His6-tagged D3dgpA in solution; the method is shown only in Supplementary Figure S5
D3dgpA [3] = target: T1, D3dgpA; experiment: HPLC of […]”-oxo-puerarin formation with and without monosaccharide; assay type: biochemical; settings: 400 eq puerarin and methyl β-D-3-oxo-glucopyranoside, 800 eq monosaccharide to enzyme; 5 mM HEPES pH 7.5, 36.5°C, 10 min
purified protein = substrate: O=c1c(-c2ccc(O)cc2)coc2c([C@@H]3O[C@H](CO)[C@@H](O)[C@H](O)[C@H]3O)c(O)ccc12; experiment: purified protein; assay type: biochemical, human intestinal bacterium PUE; settings: co-substrate 760 μM methyl β-D-3-oxo-glucopyranoside, 5 mM HEPES pH 7.5, 5 mM NaCl, 36.5°C

Molecule	relative inhibition (D3dgpA [3])	further results
NC(=O)c1ccc[n+]([C@@H]2O[C@H](COP(=O)(O)OP(=O)(O)OC[C@H]3O[C@@H](n4cnc5c(N)ncnc54)[C@H](O)[C@@H]3O)[C@@H](O)[C@H]2O)c1 [NAD^+]		HPLC analysis of nucleotide co-purified with enzyme (D3dgpA [1]): The purified D3dgpA was found to contain an almost equimolar amount of NAD(H)
D3dgpA, Gfo/Idh/MocA family glycoside oxidoreductase (dgpA cloned from Dorea sp. MRG-IFC3) (enzyme)		stoichiometry N [2]: 6
CO[C@@H]1O[C@H](CO)[C@@H](O)[C@H](O)[C@H]1O [methyl β-glucopyranoside]	decreased in the order of D-glucose > methyl ß-glucoside > methyl α-glucoside ≈ levoglucosan	
OC[C@H]1OC(O)[C@H](O)[C@@H](O)[C@@H]1O (stereo partly drawn) [D-glucose]	D-glucose exhibited the most inhibitory effects on the oxidation of puerarin	
O[C@@H]1[C@@H](O)[C@@H]2OC[C@@H](O2)[C@H]1O [levoglucosan]	decreased in the order of D-glucose > methyl ß-glucoside > methyl α-glucoside ≈ levoglucosan	
CO[C@H]1O[C@H](CO)[C@@H](O)[C@H](O)[C@H]1O [methyl α-glucopyranoside]	decreased in the order of D-glucose > methyl ß-glucoside > methyl α-glucoside ≈ levoglucosan	
B1		Km (purified protein): 250 µM; kcat (purified protein): 32 s⁻¹
